Assay results published in patent US20170304388A1, “NEW INDICATION OF CARDIOVASCULAR DRUGS FOR PREPARATION OF CANCER INHIBITION PHARMACEUTICAL COMPOSITION” (LAUNX BIOMEDICAL CO., LTD., priority 2014, published 2017).
Counter-ions that a name gives are not always drawn. Like-named read-outs stand apart in the source and are kept apart here.

Experiments:
Type in all cases: cell-based
[1] = test system: A375 (Amelanotic Melanoma); assay: Cell viability analysis (WST-1), A375; settings: WST-1, OD450 nm, lower viability = better inhibition; for viability at 10 µM: Homo sapiens, read-out: survival rate (viability) of cancer cells, A375
[2] = test system: HCT116 (Colorectal Carcinoma); assay: Cell viability analysis (WST-1), HCT116; settings: WST-1, OD450 nm; for viability at 10 µM: Homo sapiens, read-out: survival rate (viability) of cancer cells, HCT116 (WT)
[3] = test system: HepG2 (Hepatocellular Carcinoma); assay: Cell viability analysis (WST-1), HepG2; settings: WST-1, OD450 nm; for viability at 10 µM: Homo sapiens, read-out: survival rate (viability) of cancer cells, HepG2
[4] = test system: HeLa (Cervix Adenocarcinoma); assay: Cell viability analysis (WST-1), HeLa; settings: WST-1, OD450 nm; for viability at 10 µM: Homo sapiens, HeLa, read-out: survival rate (viability) of cancer cells, HeLa
[5] = test system: AGS (Gastric Adenocarcinoma); assay: Cell viability analysis (WST-1), AGS; settings: WST-1, OD450 nm; for viability at 10 µM: read-out: survival rate (viability) of cancer cells, AGS
[6] = test system: H1650 (Lung Adenocarcinoma); assay: Cell viability analysis (WST-1), H1650; settings: WST-1, OD450 nm; for viability at 10 µM: Homo sapiens, read-out: survival rate (viability) of cancer cells, H1650
[7] = test system: MKN-45 (Gastric Adenocarcinoma); assay: Cell viability analysis (WST-1), MKN-45; settings: WST-1, OD450 nm; for viability at 10 µM: Homo sapiens, read-out: survival rate (viability) of cancer cells, MKN-45
[8] = test system: TSGH-8301 (Urinary Bladder Carcinoma); assay: Cell viability analysis (WST-1), TSGH-8301; settings: WST-1, OD450 nm; for viability at 10 µM: read-out: survival rate (viability) of cancer cells, TSGH
[9] = test system: A549 (Lung Adenocarcinoma); assay: Cell viability analysis (WST-1), A549; settings: WST-1, OD450 nm; for viability at 10 µM: Homo sapiens, read-out: survival rate (viability) of cancer cells, A549
[10] = test system: MCF7 (Mammary Gland, Adenocarcinoma); assay: Cell viability analysis (WST-1), MCF7; settings: WST-1, OD450 nm; for viability at 10 µM: Homo sapiens, read-out: survival rate (viability) of cancer cells, MCF7
[11] = test system: PC3 (Prostate Adenocarcinoma); assay: Cell viability analysis (WST-1), PC3; settings: WST-1, OD450 nm; for viability at 10 µM: read-out: survival rate (viability) of cancer cells, PC3
[12] = test system: LoVo (Colorectal Adenocarcinoma); assay: Cell viability analysis (WST-1), LoVo; settings: WST-1, OD450 nm; for viability at 10 µM: Homo sapiens, LoVo, read-out: survival rate (viability) of cancer cells, LoVo
[13] = test system: HL-60 (Acute Promyelocytic Leukemia); assay: Cell viability analysis (WST-1), HL-60; settings: Table 3, drug 10 μM, 72 hours, WST-1, OD450 nm; for viability at 10 µM: Homo sapiens, HL-60, read-out: survival rate (viability) of cancer cells, HL-60
cancer cell lines = assay: Growth inhibitory effects on the panel of cancer cell lines; settings: drug 10 μM, 72 hours; for Numbers of inhibitory effect on cancer cell line: count of cancer cell lines inhibited; for inhibition effect on different cancer cell lines (in words): WST-1
[14] = A-375, 72 h, Table 3, drug 10 μM
[15] = HCT-116, 72 h, Table 3, drug 10 μM
[16] = HepG2, 72 h, Table 3, drug 10 μM
[17] = NCI-H1650, 72 h, Table 3, drug 10 μM
[18] = MKN-45, 72 h, Table 3, drug 10 μM
[19] = A549, 72 h, Table 3, drug 10 μM
[20] = MCF7, 72 h, Table 3, drug 10 μM

Structure (SMILES)	viability at 10 µM [13] [%]	Numbers of inhibitory effect on cancer cell line (cancer cell lines)	inhibition effect on different cancer cell lines (in words) (cancer cell lines)	viability at 10 µM [1, 14] [%]	viability at 10 µM [2, 15] [%]	viability at 10 µM [3, 16] [%]	viability at 10 µM ([4]; 72 h, Table 3, drug 10 μM) [%]	viability at 10 µM ([5]; 72 h, Table 3, drug 10 μM) [%]	viability at 10 µM [6, 17] [%]	viability at 10 µM [7, 18] [%]	viability at 10 µM ([8]; 72 h, Table 3, drug 10 μM) [%]	viability at 10 µM [9, 19] [%]	viability at 10 µM [10, 20] [%]	viability at 10 µM ([11]; 72 h, Table 3, drug 10 μM) [%]	viability at 10 µM ([12]; 72 h, Table 3, drug 10 μM) [%]	other results
CCN(C)C(=O)Oc1cccc([C@H](C)N(C)C)c1 [Rivastigmine tartrate (Exelon), Rivastigmine tartrate]	103	0	significant inhibition effect													viability at 10 µM ([1]; A-375, Table 3, drug 10 μM, 72 hours): 76.1%; viability at 10 µM ([2]; HCT-116, Table 3, drug 10 μM, 72 hours): 118%; viability at 10 µM ([3]; HepG2, Table 3, drug 10 μM, 72 hours): 93.7%; viability at 10 µM ([4]; Table 3, drug 10 μM, 72 hours): 90.1%; viability at 10 µM ([5]; Table 3, drug 10 μM, 72 hours): 63.6%; viability at 10 µM ([6]; NCI-H1650, Table 3, drug 10 μM, 72 hours): 83.6%; viability at 10 µM ([7]; MKN-45, Table 3, drug 10 μM, 72 hours): 93.8%; viability at 10 µM ([8]; Table 3, drug 10 μM, 72 hours): 83.9%; viability at 10 µM ([9]; A549, Table 3, drug 10 μM, 72 hours): 65.9%; viability at 10 µM ([10]; MCF7, Table 3, drug 10 μM, 72 hours): 67.5%; viability at 10 µM ([11]; Table 3, drug 10 μM, 72 hours): 85.4%; viability at 10 µM ([12]; Table 3, drug 10 μM, 72 hours): 85.4%
CCOC(=O)[C@H](CCc1ccccc1)N[C@H]1CCc2ccccc2N(CC(=O)O)C1=O [Benazepril hydrochloride]	93.6	0	significant inhibition effect	104	60	93	75.9	76.7	61.6	103	77.5	81.8	126	80.7	96	
CNC[C@@H](O)c1ccc(O)c(O)c1 [L-Adrenaline (Epinephrine), L-Adrenaline]		0	significant inhibition effect													survival rate (viability) of cancer cells, A375 ([1]; Table 3, drug 10 μM, 72 hours): 101.9; survival rate (viability) of cancer cells, HCT116 (WT) ([2]; Table 3, drug 10 μM, 72 hours): 85.0; survival rate (viability) of cancer cells, HepG2 ([3]; Table 3, drug 10 μM, 72 hours): 81.6; survival rate (viability) of cancer cells, HeLa ([4]; Table 3, drug 10 μM, 72 hours): 88.7; survival rate (viability) of cancer cells, AGS ([5]; Table 3, drug 10 μM, 72 hours): 61.1; survival rate (viability) of cancer cells, H1650 ([6]; Table 3, drug 10 μM, 72 hours): 76.6; survival rate (viability) of cancer cells, MKN-45 ([7]; Table 3, drug 10 μM, 72 hours): 69.4; survival rate (viability) of cancer cells, TSGH ([8]; Table 3, drug 10 μM, 72 hours): 64.7; survival rate (viability) of cancer cells, A549 ([9]; Table 3, drug 10 μM, 72 hours): 90.8; survival rate (viability) of cancer cells, MCF7 ([10]; Table 3, drug 10 μM, 72 hours): 123.0; survival rate (viability) of cancer cells, PC3 ([11]; Table 3, drug 10 μM, 72 hours): 106.0; survival rate (viability) of cancer cells, LoVo ([12]; Table 3, drug 10 μM, 72 hours): 93.6; survival rate (viability) of cancer cells, HL-60 [13]: 101.8
CC(=O)Oc1ccc(C(c2ccc(OC(C)=O)cc2)c2ccccn2)cc1 [Bisacodyl]	96	0	significant inhibition effect	88	122	100	89.2	107	93.6	132	104	66.7	65	83.7	85.5	
C#CCN[C@@H]1CCc2ccccc21 [Rasagiline mesylate]	105	0	significant inhibition effect	76.9	142	92	88.1	75.8	71.8	87.7	74.2	91.3	88.3	103	94	
O=C(O)c1nn(Cc2ccc(Cl)cc2Cl)c2ccccc12 [Lonidamine]	115	0	significant inhibition effect	65.8	81.2	114	61.6	69.9	65.9	93.3	86.4	109	86.9	102	96.1	
Clc1ccccc1CN1CCc2sccc2C1 [Ticlopidine HCl]	102	0	significant inhibition effect	86.5	71.9	97.4	81.9	77.2	61.6	72.7	112	84.9	96.8	69.9	90.5	
CC(C)NCC(O)COc1ccc(COCCOC(C)C)cc1 (stereo not drawn) [Bisoprolol]	85.7	0	significant inhibition effect	117	118	108	111	80.3	80.7	79.7	87.5	124	112	95.2	119	
NS(=O)(=O)c1cc2c(cc1Cl)NC(C(Cl)Cl)NS2(=O)=O (stereo not drawn) [Trichlormethiazide (Achletin), Trichlormethiazide]	102	0	significant inhibition effect	128	112	95.1	85.7	79.3	76.7	71	95.6	106	64.2	122	107	
CC(=O)NS(=O)(=O)c1ccc(N)cc1 [sulfacetamide sodium]	112	0	significant inhibition effect	64.9	76.7	98.7	75.9	81.4	79.8	118	120	70	110	70.8	81.8	
